# Source: the supplement of paper PMC4862054
# Tests used:
# Assay in all cases: normalised viability (% of control), CellTiter-Blue; higher = more viable cells (about 100 = DMSO control)
# Conditions in all cases: incubation time: 72 h
# HCC1143 = tested on: HCC1143
# Method in brief: (§1)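 After 72 h on compound-loaded 384-well plates, breast cancer cell lines received 2.5 µl CellTiter-Blue reagent for 2 h at 37 °C. Fluorescence at 560/590 nm was scaled per plate so that vehicle was 100 and a positive kill control was 0. The value stands for normalised viability at a single listed concentration of the series.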
# CAL-120 = tested on: CAL-120
# Method in brief: as §1
# DU-4475 = tested on: DU-4475
# Method in brief: as §1
# BT-474 = tested on: BT-474
# Method in brief: as §1
# Hs578T = tested on: Hs578T
# Method in brief: as §1
# BT-549 = tested on: BT-549
# Method in brief: as §1
# CAL-51 = tested on: CAL-51
# Method in brief: as §1
# CAL-85-1 = tested on: CAL-85-1
# Method in brief: as §1
# MDA-MB-468 = tested on: MDA-MB-468
# Method in brief: as §1
# HCC1599 = tested on: HCC1599
# Method in brief: as §1
# MDA-MB-231 = tested on: MDA-MB-231
# Method in brief: as §1
# CAL-148 = tested on: CAL-148
# Method in brief: as §1
SMILES,normalised viability (HCC1143; 10 nM) [%],normalised viability (HCC1143; 1000 nM) [%],normalised viability (HCC1143; 10000 nM) [%],normalised viability (CAL-120; 10 nM) [%],normalised viability (CAL-120; 1000 nM) [%],normalised viability (CAL-120; 10000 nM) [%],normalised viability (DU-4475; 3 nM) [%],normalised viability (DU-4475; 30 nM) [%],normalised viability (DU-4475; 100 nM) [%],normalised viability (BT-474; 10 nM) [%],normalised viability (BT-474; 1000 nM) [%],normalised viability (BT-474; 10000 nM) [%],normalised viability (Hs578T; 10 nM) [%],normalised viability (Hs578T; 1000 nM) [%],normalised viability (Hs578T; 10000 nM) [%],normalised viability (BT-549; 10 nM) [%],normalised viability (BT-549; 1000 nM) [%],normalised viability (BT-549; 10000 nM) [%],normalised viability (CAL-51; 3 nM) [%],normalised viability (CAL-51; 30 nM) [%],normalised viability (CAL-51; 100 nM) [%],normalised viability (CAL-85-1; 3 nM) [%],normalised viability (CAL-85-1; 30 nM) [%],normalised viability (CAL-85-1; 100 nM) [%],normalised viability (MDA-MB-468; 10 nM) [%],normalised viability (MDA-MB-468; 1000 nM) [%],normalised viability (MDA-MB-468; 10000 nM) [%],normalised viability (HCC1599; 10 nM) [%],normalised viability (HCC1599; 1000 nM) [%],normalised viability (HCC1599; 10000 nM) [%],normalised viability (MDA-MB-231; 10 nM) [%],normalised viability (MDA-MB-231; 1000 nM) [%],normalised viability (MDA-MB-231; 10000 nM) [%],normalised viability (CAL-148; 3 nM) [%],normalised viability (CAL-148; 30 nM) [%],normalised viability (CAL-148; 100 nM) [%]
C[C@]12CC[C@@H]3c4ccc(O)cc4C[C@@H](CCCCCCCCC[S+]([O-])CCCC(F)(F)C(F)(F)F)[C@H]3[C@@H]1CC[C@@H]2O (stereo partly drawn) [Fulvestrant],76.6,81.5,78.1,79.2,90.7,87.6,91.6,78,91.5,94.7,88.4,107,103,91.7,86.2,74.7,86.5,74.8,116,107,109,91.8,91.7,90.3,97.5,104,83.6,93.9,82.6,92.4,105,99.7,90.2,89,87.5,87.3
CN(C)/N=N/c1[nH]cnc1C(N)=O [Dacarbazine],76.3,106,84.2,88.2,83.8,79.5,90.4,89.6,92.4,126,122,119,119,113,94.8,103,89.2,106,92.7,88.9,88.9,95.8,84.6,90.5,104,104,88.8,93.8,97.1,86.7,101,89.3,99,84.4,96,99.2
CC(C)Cn1cnc2c(N)nc3ccccc3c21 [Imiquimod],96.5,99.9,94.1,97.9,97.2,105,97,101,99,104,115,102,105,105,84.9,94.5,103,78.7,103,97.9,98.1,100,90.6,105,102,103,107,102,100,109,84.8,89.3,107,93.1,102,98.5
